ChEMBL document CHEMBL4308841, “Synthesis, in vitro antiproliferative activity, and kinase inhibitory effects of pyrazole-containing diarylureas and diarylamides” (Eur J Med Chem, 2018)

test system: K562; test: Growth inhibition of human K562 cells assessed as cell growth at 0.01 uM incubated for 48 hrs by sulforhodamine B assay relative to control; assay type: functional; conditions: K562, 48 h, read-out: Activity

Structure (SMILES)	growth at 0.01 µM
O=C(Nc1cccc(-n2cc(-c3ccncc3)c(-c3cc(O)cc(Cl)c3)n2)c1)c1ccc(N2CCOCC2)c(C(F)(F)F)c1	113%

test system: OVCAR-3; test: Growth inhibition of human OVCAR3 cells incubated for 48 hrs by sulforhodamine B assay; assay type: functional, cell-based; conditions: OVCAR-3, 48 h

Structure (SMILES)	IC50
O=C(Nc1cccc(-n2cc(-c3ccncc3)c(-c3cc(O)cc(Cl)c3)n2)c1)c1ccc(N2CCOCC2)c(C(F)(F)F)c1	7.2 µM

same assay, conditions: OVCAR-3, 48 h, read-out: GI50

Structure (SMILES)	GI50
O=C(Nc1cccc(-n2cc(-c3ccncc3)c(-c3cc(O)cc(Cl)c3)n2)c1)c1ccc(N2CCOCC2)c(C(F)(F)F)c1	7.2 µM

same assay, conditions: OVCAR-3, 48 h, read-out: LC50 (the source's name)

Structure (SMILES)	CC50
O=C(Nc1cccc(-n2cc(-c3ccncc3)c(-c3cc(O)cc(Cl)c3)n2)c1)c1ccc(N2CCOCC2)c(C(F)(F)F)c1	> 100 µM

same assay, conditions: OVCAR-3, 48 h, read-out: TGI

Structure (SMILES)	TGI
O=C(Nc1cccc(-n2cc(-c3ccncc3)c(-c3cc(O)cc(Cl)c3)n2)c1)c1ccc(N2CCOCC2)c(C(F)(F)F)c1	> 100 µM

same assay, conditions: OVCAR-3, 48 h, read-out: pGI50 (converted)

Structure (SMILES)	GI50
O=C(Nc1cccc(-n2cc(-c3ccncc3)c(-c3cc(O)cc(Cl)c3)n2)c1)c1ccc(N2CCOCC2)c(C(F)(F)F)c1	7.24 µM

same assay, conditions: OVCAR-3, 48 h, read-out: pLC50 (the source's name) (converted)

Structure (SMILES)	CC50
O=C(Nc1cccc(-n2cc(-c3ccncc3)c(-c3cc(O)cc(Cl)c3)n2)c1)c1ccc(N2CCOCC2)c(C(F)(F)F)c1	> 100 µM

same assay, conditions: OVCAR-3, 48 h, read-out: pTGI (converted)

Structure (SMILES)	TGI
O=C(Nc1cccc(-n2cc(-c3ccncc3)c(-c3cc(O)cc(Cl)c3)n2)c1)c1ccc(N2CCOCC2)c(C(F)(F)F)c1	> 100 µM

test system: HCT-116; test: Growth inhibition of human HCT116 cells assessed as cell growth at 1 uM incubated for 48 hrs by sulforhodamine B assay relative to control; assay type: functional; conditions: HCT-116, 48 h, read-out: Activity

Structure (SMILES)	growth at 1 µM
O=C(Nc1cccc(-n2cc(-c3ccncc3)c(-c3cc(O)cc(Cl)c3)n2)c1)c1ccc(N2CCOCC2)c(C(F)(F)F)c1	58%

test system: Hs-578T; test: Growth inhibition of human Hs578T cells incubated for 48 hrs by sulforhodamine B assay; assay type: functional, cell-based; conditions: read-out: GI50

Structure (SMILES)	GI50
O=C(Nc1cccc(-n2cc(-c3ccncc3)c(-c3cc(O)cc(Cl)c3)n2)c1)c1ccc(N2CCOCC2)c(C(F)(F)F)c1	2.94 µM

same assay, conditions: read-out: LC50 (the source's name)

Structure (SMILES)	CC50
O=C(Nc1cccc(-n2cc(-c3ccncc3)c(-c3cc(O)cc(Cl)c3)n2)c1)c1ccc(N2CCOCC2)c(C(F)(F)F)c1	> 100 µM

same assay, conditions: read-out: TGI

Structure (SMILES)	TGI
O=C(Nc1cccc(-n2cc(-c3ccncc3)c(-c3cc(O)cc(Cl)c3)n2)c1)c1ccc(N2CCOCC2)c(C(F)(F)F)c1	> 100 µM

same assay, conditions: read-out: pGI50 (converted)

Structure (SMILES)	GI50
O=C(Nc1cccc(-n2cc(-c3ccncc3)c(-c3cc(O)cc(Cl)c3)n2)c1)c1ccc(N2CCOCC2)c(C(F)(F)F)c1	2.95 µM

same assay, conditions: read-out: pLC50 (the source's name) (converted)

Structure (SMILES)	CC50
O=C(Nc1cccc(-n2cc(-c3ccncc3)c(-c3cc(O)cc(Cl)c3)n2)c1)c1ccc(N2CCOCC2)c(C(F)(F)F)c1	> 100 µM

same assay, conditions: read-out: pTGI (converted)

Structure (SMILES)	TGI
O=C(Nc1cccc(-n2cc(-c3ccncc3)c(-c3cc(O)cc(Cl)c3)n2)c1)c1ccc(N2CCOCC2)c(C(F)(F)F)c1	> 100 µM

test system: UACC-62; test: Growth inhibition of human UACC62 cells assessed as cell growth at 0.1 uM incubated for 48 hrs by sulforhodamine B assay relative to control; assay type: functional; conditions: UACC-62, 48 h, read-out: Activity

Structure (SMILES)	growth at 0.1 µM
O=C(Nc1cccc(-n2cc(-c3ccncc3)c(-c3cc(O)cc(Cl)c3)n2)c1)c1ccc(N2CCOCC2)c(C(F)(F)F)c1	91%

test system: OVCAR-8; test: Growth inhibition of human OVCAR8 cells assessed as cell growth at 0.01 uM incubated for 48 hrs by sulforhodamine B assay relative to control; assay type: functional; conditions: OVCAR-8, 48 h, read-out: Activity

Structure (SMILES)	growth at 0.01 µM
O=C(Nc1cccc(-n2cc(-c3ccncc3)c(-c3cc(O)cc(Cl)c3)n2)c1)c1ccc(N2CCOCC2)c(C(F)(F)F)c1	101%

test system: NCI-H23; test: Growth inhibition of human NCI-H23 cells assessed as cell growth at 100 uM incubated for 48 hrs by sulforhodamine B assay relative to control; assay type: functional; conditions: NCI-H23, 48 h, read-out: Activity

Structure (SMILES)	growth at 100 µM
O=C(Nc1cccc(-n2cc(-c3ccncc3)c(-c3cc(O)cc(Cl)c3)n2)c1)c1ccc(N2CCOCC2)c(C(F)(F)F)c1	-12%

test system: SK-MEL-5; test: Growth inhibition of human SK-MEL-5 cells assessed as cell growth at 0.01 uM incubated for 48 hrs by sulforhodamine B assay relative to control; assay type: functional; conditions: SK-MEL-5, 48 h, read-out: Activity

Structure (SMILES)	growth at 0.01 µM
O=C(Nc1cccc(-n2cc(-c3ccncc3)c(-c3cc(O)cc(Cl)c3)n2)c1)c1ccc(N2CCOCC2)c(C(F)(F)F)c1	98%

test system: RPMI-8226; test: Growth inhibition of human RPMI8226 cells incubated for 48 hrs by sulforhodamine B assay; assay type: functional, cell-based; conditions: RPMI-8226, 48 h

Structure (SMILES)	IC50
O=C(Nc1cccc(-n2cc(-c3ccncc3)c(-c3cc(O)cc(Cl)c3)n2)c1)c1ccc(N2CCOCC2)c(C(F)(F)F)c1	0.4 µM

same assay, conditions: RPMI-8226, 48 h, read-out: GI50

Structure (SMILES)	GI50
O=C(Nc1cccc(-n2cc(-c3ccncc3)c(-c3cc(O)cc(Cl)c3)n2)c1)c1ccc(N2CCOCC2)c(C(F)(F)F)c1	0.396 µM

same assay, conditions: RPMI-8226, 48 h, read-out: LC50 (the source's name)

Structure (SMILES)	CC50
O=C(Nc1cccc(-n2cc(-c3ccncc3)c(-c3cc(O)cc(Cl)c3)n2)c1)c1ccc(N2CCOCC2)c(C(F)(F)F)c1	> 100 µM

same assay, conditions: RPMI-8226, 48 h, read-out: TGI

Structure (SMILES)	TGI
O=C(Nc1cccc(-n2cc(-c3ccncc3)c(-c3cc(O)cc(Cl)c3)n2)c1)c1ccc(N2CCOCC2)c(C(F)(F)F)c1	23.1 µM

same assay, conditions: RPMI-8226, 48 h, read-out: pGI50 (converted)

Structure (SMILES)	GI50
O=C(Nc1cccc(-n2cc(-c3ccncc3)c(-c3cc(O)cc(Cl)c3)n2)c1)c1ccc(N2CCOCC2)c(C(F)(F)F)c1	0.398 µM

same assay, conditions: RPMI-8226, 48 h, read-out: pLC50 (the source's name) (converted)

Structure (SMILES)	CC50
O=C(Nc1cccc(-n2cc(-c3ccncc3)c(-c3cc(O)cc(Cl)c3)n2)c1)c1ccc(N2CCOCC2)c(C(F)(F)F)c1	> 100 µM

same assay, conditions: RPMI-8226, 48 h, read-out: pTGI (converted)

Structure (SMILES)	TGI
O=C(Nc1cccc(-n2cc(-c3ccncc3)c(-c3cc(O)cc(Cl)c3)n2)c1)c1ccc(N2CCOCC2)c(C(F)(F)F)c1	2.29 µM

test system: SF-295; test: Growth inhibition of human SF295 cells assessed as cell growth at 0.01 uM incubated for 48 hrs by sulforhodamine B assay relative to control; assay type: functional; conditions: SF-295, 48 h, read-out: Activity

Structure (SMILES)	growth at 0.01 µM
O=C(Nc1cccc(-n2cc(-c3ccncc3)c(-c3cc(O)cc(Cl)c3)n2)c1)c1ccc(N2CCOCC2)c(C(F)(F)F)c1	97%

test system: HL-60(TB); test: Growth inhibition of human HL-60(TB) cells assessed as cell growth at 1 uM incubated for 48 hrs by sulforhodamine B assay relative to control; assay type: functional; conditions: HL-60, 48 h, read-out: Activity

Structure (SMILES)	growth at 1 µM
O=C(Nc1cccc(-n2cc(-c3ccncc3)c(-c3cc(O)cc(Cl)c3)n2)c1)c1ccc(N2CCOCC2)c(C(F)(F)F)c1	44%

test system: Malme-3M; test: Growth inhibition of human MALME-3M cells assessed as cell growth at 100 uM incubated for 48 hrs by sulforhodamine B assay relative to control; assay type: functional; conditions: read-out: Activity

Structure (SMILES)	growth at 100 µM
O=C(Nc1cccc(-n2cc(-c3ccncc3)c(-c3cc(O)cc(Cl)c3)n2)c1)c1ccc(N2CCOCC2)c(C(F)(F)F)c1	-25%

test system: SK-MEL-2; test: Growth inhibition of human SK-MEL-2 cells assessed as cell growth at 10 uM incubated for 48 hrs by sulforhodamine B assay relative to control; assay type: functional; conditions: SK-MEL-2, 48 h, read-out: Activity

Structure (SMILES)	growth at 10 µM
O=C(Nc1cccc(-n2cc(-c3ccncc3)c(-c3cc(O)cc(Cl)c3)n2)c1)c1ccc(N2CCOCC2)c(C(F)(F)F)c1	22.9%
